Results reported in ChEMBL document CHEMBL3792372, “Modification of the length and structure of the linker of N(6)-benzyladenosine modulates its selective antiviral activity against enterovirus 71” (Eur J Med Chem, 2016).

Tests used:
[1] = Cytotoxicity against human RD cells; type: cell-based
Enterovirus A71 [2] = assay: Antiviral activity against Enterovirus 71 infected in human RD cells assessed as cell viability after 3 days by MTS assay; type: functional, organism-based; conditions: Enterovirus A, 72 h
[3] = Selectivity index, ratio of CC50 for human RD cells to EC50 for Enterovirus 71; type: toxicity, cell-based; conditions: read-out: Ratio CC50/EC50
Enterovirus A71 [4] = assay: Antiviral activity against Enterovirus 71 clinical isolate TW/70902/08 infected in human RD cells assessed as cell viability after 3 days by MTS assay; type: functional, organism-based; conditions: Enterovirus A, isolate TW/70902/08, RD, 72 h
Enterovirus A71 [5] = assay: Antiviral activity against Enterovirus 71 isolate TW/2429/04 infected in human RD cells assessed as cell viability after 3 days by MTS assay; type: functional, organism-based; conditions: Enterovirus A, isolate TW/2429/04, RD, 72 h
Enterovirus A71 [6] = assay: Antiviral activity against Enterovirus 71 clinical isolate TW/96016/08 infected in human RD cells assessed as cell viability after 3 days by MTS assay; type: functional, organism-based; conditions: Enterovirus A, isolate TW/96016/08, RD, 72 h
Enterovirus A71 [7] = assay: Antiviral activity against Enterovirus 71 clinical isolate 11316 infected in human RD cells assessed as cell viability after 3 days by MTS assay; type: functional, organism-based; conditions: Enterovirus A, isolate 11316, RD, 72 h
Enterovirus A71 [8] = assay: Antiviral activity against Enterovirus 71 clinical isolate TW/1956/05 infected in human RD cells assessed as cell viability after 3 days by MTS assay; type: functional, organism-based; conditions: Enterovirus A, isolate TW/1956/05, RD, 72 h
Enterovirus A71 [9] = assay: Antiviral activity against Enterovirus 71 clinical isolate H08300 461#812 infected in human RD cells assessed as cell viability after 3 days by MTS assay; type: functional, organism-based; conditions: Enterovirus A, isolate H08300 461#812, RD, 72 h

## Cn1cc(CNc2ncnc3c2ncn3[C@@H]2O[C@H](CO)[C@@H](O)[C@H]2O)nn1
[1]
  CC50: 136 µM
Enterovirus A71 [2]
  EC50: > 136 µM

## OC[C@H]1O[C@@H](n2cnc3c(NCOCc4ccccc4)ncnc32)[C@H](O)[C@@H]1O
[3]
  selectivity ratio: 175
[1]
  CC50: 525 µM
Enterovirus A71 [2]
  EC50: 3 µM

## OC[C@H]1O[C@@H](n2cnc3c(NCCCOc4ccccc4)ncnc32)[C@H](O)[C@@H]1O
[1]
  CC50: > 311 µM
Enterovirus A71 [2]
  EC50: > 311 µM

## OC[C@H]1O[C@@H](n2cnc3c(OCCc4ccccc4)ncnc32)[C@H](O)[C@@H]1O
[1]
  CC50: 8.5 µM
Enterovirus A71 [2]
  EC50: > 8.5 µM

## C[C@H]1O[C@@H](n2cnc3c(NCCc4ccccc4)ncnc32)[C@H](O)[C@@H]1O
[1]
  CC50: 463 µM
Enterovirus A71 [2]
  EC50: > 281 µM

## OC[C@H]1O[C@@H](n2cnc3c(NCCCc4ccccc4)ncnc32)C[C@@H]1O
[1]
  CC50: > 271 µM
Enterovirus A71 [2]
  EC50: > 271 µM

## OC[C@H]1O[C@@H](n2cnc3c(NCCCc4ccccc4)ncnc32)[C@H](O)[C@@H]1O
[3]
  selectivity ratio: 105
[1]
  CC50: 189 µM
Enterovirus A71 [2]
  EC50: 1.8 µM

## OC[C@H]1O[C@@H](n2cnc3c(OCCCc4ccccc4)ncnc32)[C@H](O)[C@@H]1O
[1]
  CC50: 182 µM
Enterovirus A71 [2]
  EC50: > 182 µM

## OC[C@H]1O[C@@H](n2cnc3c(OCc4ccccc4)ncnc32)[C@H](O)[C@@H]1O
[3]
  selectivity ratio: 37
[1]
  CC50: 191 µM
Enterovirus A71 [2]
  EC50: 5.1 µM

## OC[C@H]1O[C@@H](n2cnc3c(NCCOc4ccccc4)ncnc32)C[C@@H]1O
[1]
  CC50: > 337 µM
Enterovirus A71 [2]
  EC50: > 135 µM

## CC(C)=CCNc1ncnc2c1ncn2[C@@H]1O[C@H](CO)[C@@H](O)[C@H]1O [RIBOPRINE]
[3]
  selectivity ratio: 5.8
[1]
  CC50: 5.8 µM
Enterovirus A71 [2]
  EC50: 1 µM

## OC[C@H]1O[C@@H](n2cnc3c(NCc4cn(Cc5ccccc5)nn4)ncnc32)[C@H](O)[C@@H]1O
[1]
  CC50: > 285 µM
Enterovirus A71 [2]
  EC50: > 228 µM

## OC[C@H]1O[C@@H](n2cnc3c(NCCOc4ccccc4)ncnc32)[C@H](O)[C@@H]1O
[3]
  selectivity ratio: 25
[1]
  CC50: 107 µM
Enterovirus A71 [2]
  EC50: 4.3 µM

## OC[C@H]1O[C@@H](n2cnc3c(NCc4ccccc4)ncnc32)[C@H](O)[C@@H]1O [N6-BENZYLADENOSINE]
[3]
  selectivity ratio: 14
[1]
  CC50: 4 µM
Enterovirus A71 [2]
  EC50: 0.28 µM

## C[C@H]1O[C@@H](n2cnc3c(NCc4ccccc4)ncnc32)[C@H](O)[C@@H]1O
[3]
  selectivity ratio: > 54
[1]
  CC50: > 366 µM
Enterovirus A71 [2]
  EC50: 6.7 µM

## c1ccc(CNc2ncnc3nc[nH]c23)cc1 [6-BENZYLAMINOPURINE]
[3]
  selectivity ratio: 1300
[1]
  CC50: 547 µM
Enterovirus A71 [2]
  EC50: 0.42 µM

## O=C(Nc1ncnc2c1ncn2[C@@H]1O[C@H](CO)[C@@H](O)[C@H]1O)c1ccccc1
[3]
  selectivity ratio: > 28
[1]
  CC50: > 337 µM
Enterovirus A71 [2]
  EC50: 12 µM

## OC[C@H]1O[C@@H](n2cnc3c(NCc4cn(COCc5ccccc5)nn4)ncnc32)[C@H](O)[C@@H]1O
[1]
  CC50: 116 µM
Enterovirus A71 [2]
  EC50: > 116 µM

## OC[C@H]1O[C@@H](n2cnc3c(NCCc4ccccc4)ncnc32)C[C@@H]1O
[1]
  CC50: > 352 µM
Enterovirus A71 [2]
  EC50: > 281 µM

## OC[C@H]1O[C@@H](n2cnc3c(NCCc4ccccc4)ncnc32)[C@H](O)[C@@H]1O
Enterovirus A71 [4]
  EC50: 8.3 µM
[3]
  selectivity ratio: 123
Enterovirus A71 [5]
  EC50: 3700 nM
Enterovirus A71 [6]
  EC50: 5.6 µM
Enterovirus A71 [7]
  EC50: 8.2 µM
Enterovirus A71 [8]
  EC50: 2700 nM
[1]
  CC50: 221 µM
Enterovirus A71 [2]
  EC50: 1.8 µM
Enterovirus A71 [9]
  EC50: 1900 nM

## O=C(Nc1ncnc2c1ncn2C(CO)OC(CO)CO)c1ccccc1 (stereo unspecified)
[1]
  CC50: > 335 µM
Enterovirus A71 [2]
  EC50: > 335 µM

## OC[C@H]1O[C@@H](n2cnc3c(NCCCCc4ccccc4)ncnc32)[C@H](O)[C@@H]1O
[1]
  CC50: > 313 µM
Enterovirus A71 [2]
  EC50: > 250 µM

## OC[C@H]1O[C@@H](n2cnc3c(NCc4ccco4)ncnc32)[C@H](O)[C@@H]1O [KINETIN RIBOSIDE]
[3]
  selectivity ratio: 5.6
[1]
  CC50: 7.8 µM
Enterovirus A71 [2]
  EC50: 1.4 µM

## C=CCC#CCNc1ncnc2c1ncn2[C@@H]1O[C@H](CO)[C@@H](O)[C@H]1O
[3]
  selectivity ratio: > 88
[1]
  CC50: > 434 µM
Enterovirus A71 [2]
  EC50: 4.9 µM

## OC[C@H]1O[C@@H](n2cnc3c(NC/C=C/c4ccccc4)ncnc32)[C@H](O)[C@@H]1O
Enterovirus A71 [4]
  EC50: 2.5 µM
[3]
  selectivity ratio: 645
Enterovirus A71 [5]
  EC50: 1160 nM
Enterovirus A71 [6]
  EC50: 2 µM
Enterovirus A71 [7]
  EC50: 2.2 µM
Enterovirus A71 [8]
  EC50: 1000 nM
[1]
  CC50: 426 µM
Enterovirus A71 [2]
  EC50: 0.66 µM
Enterovirus A71 [9]
  EC50: 380 nM

## OC[C@H]1O[C@@H](n2cnc3c(NCc4ccccc4)ncnc32)C[C@@H]1O
[1]
  CC50: > 366 µM
Enterovirus A71 [2]
  EC50: > 146 µM

## CC(C)=CCNc1ncnc2nc[nH]c12
[1]
  CC50: 325 µM
Enterovirus A71 [2]
  EC50: > 325 µM

## OCCn1cc(CNc2ncnc3c2ncn3[C@@H]2O[C@H](CO)[C@@H](O)[C@H]2O)nn1
[1]
  CC50: 317 µM
Enterovirus A71 [2]
  EC50: > 317 µM

## OC[C@H]1O[C@@H](n2cnc3c(NCC#Cc4ccccc4)ncnc32)[C@H](O)[C@@H]1O
[3]
  selectivity ratio: 124
[1]
  CC50: 72 µM
Enterovirus A71 [2]
  EC50: 0.58 µM

## OC[C@H]1O[C@@H](n2cnc3c(Nc4ccccc4)ncnc32)[C@H](O)[C@@H]1O [N6-PHENYLADENOSINE]
[1]
  CC50: 372 µM
Enterovirus A71 [2]
  EC50: > 291 µM
